Data taken from patent US20030078251A1, “Benzoxazepinones and their use as squalene synthase inhibitors” (priority 2000, published 2003).

In the case of `COc1cccc([C@H]2O[C@H](CC(=O)NCCc3ccc(OC(C)(C)C(=O)O)cc3)C(=O)N(CC(C)(C)CO)c3ccc(Cl)cc32)c1OC` [Example 77, α-[4-[2-[[(3R,5S)-7-Chloro-5-(2,3-dimethoxyphenyl)-1-(3-hydroxy-2,2-dimethylpropyl)-2-oxo-1,2,3,5-tetrahydro-4,1-benzoxazepin-3-yl]acetyl]aminoethyl]phenyloxy]isobutanoic acid], the melting point was 209 to 211 °C.
Compound `COc1cccc([C@H]2O[C@H](CC(=O)Nc3ccc4oc(C(=O)O)cc4c3)C(=O)N(CC(C)(C)CO)c3ccc(Cl)cc32)c1OC` [Example 81, 5-[[[(3R,5S)-7-Chloro-5-(2,3-dimethoxyphenyl)-1-(3-hydroxy-2,2-dimethylpropyl)-2-oxo-1,2,3,5-tetrahydro-4,1-benzoxazepin-3-yl]acetyl]amino]benzofuran-2-carboxylic acid] has a melting point of 171 to 172 °C.
In the case of `COc1cccc([C@H]2O[C@H](CC(=O)Nc3ccc(C(=O)O)o3)C(=O)N(CC(C)(C)CO)c3ccc(Cl)cc32)c1OC` [Example 94, 5-[[(3R,5S)-7-Chloro-5-(2,3-dimethoxyphenyl)-1-(3-hydroxy-2,2-dimethylpropyl)-2-oxo-1,2,3,5-tetrahydro-4,1-benzoxazepin-3-yl]acetyl]amino-2-furancarboxylic acid], the melting point was 155 to 158 °C.
In the case of `COc1cccc([C@H]2O[C@H](CC(=O)NCCCOc3ccc(CC(=O)O)cc3)C(=O)N(CC(C)(C)CO)c3ccc(Cl)cc32)c1OC` [Example 96, 4-[3-[[(3R,5S)-7-Chloro-5-(2,3-dimethoxyphenyl)-1-(3-hydroxy-2,2-dimethylpropyl)-2-oxo-1,2,3,5-tetrahydro-4,1-benzoxazepin-3-yl]acetyl]aminopropyloxy]phenylacetic acid], the melting point was 125 to 128 °C.
`COc1cccc([C@H]2O[C@H](CC(=O)NCCCOc3ccc(CC(=O)O)cc3)C(=O)N(CC(C)(C)COC(C)=O)c3ccc(Cl)cc32)c1OC` [Example 97, 4-[3-[[(3R,5S)-1-(3-Acetoxy-2,2-dimethylpropyl)-7-chloro-5-(2,3-dimethoxyphenyl)-2-oxo-1,2,3,5-tetrahydro-4,1-benzoxazepin-3-yl]acetyl]aminopropyloxy]phenylacetic acid] showed a melting point of 163 to 164 °C.
Compound `COc1cccc([C@H]2O[C@H](CC(=O)NCCCOc3ccc(C(=O)O)cc3)C(=O)N(CC(C)(C)CO)c3ccc(Cl)cc32)c1OC` [Example 98] has a melting point of 138 to 139 °C.
For `COc1cccc([C@H]2O[C@H](CC(=O)NCCCOc3cccc(C(=O)O)c3)C(=O)N(CC(C)(C)CO)c3ccc(Cl)cc32)c1OC` [Example 100, 3-[3-[[(3R,5S)-7-Chloro-5-(2,3-dimethoxyphenyl)-1-(3-hydroxy-2,2-dimethylpropyl)-2-oxo-1,2,3,5-tetrahydro-4,1-benzoxazepin-3-yl]acetyl]aminopropyloxy]benzoic acid], the melting point was 132 to 134 °C.
In the case of `COc1ccc(C(=O)O)cc1NC(=O)C[C@H]1O[C@H](c2cccc(OC)c2OC)c2cc(Cl)ccc2N(CC(C)(C)CO)C1=O` [Example 102, 3-[[(3R,5S)-7-Chloro-5-(2,3-dimethoxyphenyl)-1-(3-hydroxy-2,2-dimethylpropyl)-2-oxo-1,2,3,5-tetrahydro-4,1-benzoxazepin-3-yl]acetyl]amino-4-methoxybenzoic acid], the melting point was 171 to 173 °C.
Work on `COc1cccc([C@H]2O[C@H](CC(=O)Nc3cc(C(=O)O)ccc3F)C(=O)N(CC(C)(C)CO)c3ccc(Cl)cc32)c1OC` [Example 106, 3-[[[(3R,5S)-7-Chloro-5-(2,3-dimethoxyphenyl)-1-(3-hydroxy-2,2-dimethylpropyl)-2-oxo-1,2,3,5-tetrahydro-4,1-benzoxazepin-3-yl]acetyl]amino]-4-fluorobenzoic acid] yielded a melting point of 163 to 166 °C.
With `COc1cccc([C@H]2O[C@H](CC(=O)Nc3cc(C(=O)O)ccc3F)C(=O)N(CC(C)(C)COC(C)=O)c3ccc(Cl)cc32)c1OC` [Example 107, 3-[[[(3R,5S)-1-(3-Acetoxy-2,2-dimethylpropyl)-7-chloro-5-(2,3-dimethoxyphenyl)-2-oxo-1,2,3,5-tetrahydro-4,1-benzoxazepin-3-yl]acetyl]amino]-4-fluorobenzoic acid] the melting point was 146 to 149 °C.
In the case of `COc1cccc([C@H]2O[C@H](CC(=O)Nc3cc(CCCCC(=O)O)ccc3F)C(=O)N(CC(C)(C)CO)c3ccc(Cl)cc32)c1OC` [Example 108, 5-[3-[[[(3R,5S)-7-Chloro-5-(2,3-dimethoxyphenyl)-1-(3-hydroxy-2,2-dimethylpropyl)-2-oxo-1,2,3,5-tetrahydro-4,1-benzoxazepin-3-yl]acetyl]amino]-4-fluorophenyl]pentanoic acid], the melting point was 115 to 118 °C.
Work on `COc1ccc(CC(=O)O)cc1NC(=O)C[C@H]1O[C@H](c2cccc(OC)c2OC)c2cc(Cl)ccc2N(CC(C)(C)CO)C1=O` [Example 109] yielded a melting point of 215 to 216 °C.
With `COc1ccc(CCCC(=O)O)cc1NC(=O)C[C@H]1O[C@H](c2cccc(OC)c2OC)c2cc(Cl)ccc2N(CC(C)(C)CO)C1=O` [Example 110, 4-[3-[[[(3R,5S)-7-Chloro-5-(2,3-dimethoxyphenyl)-1-(3-hydroxy-2,2-dimethylpropyl)-2-oxo-1,2,3,5-tetrahydro-4,1-benzoxazepin-3-yl]acetyl]amino]-4-methoxyphenyl]butanoic acid] the melting point was 119 to 121 °C.
With `COc1cccc([C@H]2O[C@H](CC(=O)Nc3cccc(CCCC(=O)O)c3)C(=O)N(CC(C)(C)CO)c3ccc(Cl)cc32)c1OC` [Example 111, 4-[3-[[[(3R,5S)-7-Chloro-5-(2,3-dimethoxyphenyl)-1-(3-hydroxy-2,2-dimethylpropyl)-2-oxo-1,2,3,5-tetrahydro-4,1-benzoxazepin-3-yl]acetyl]amino]phenyl]butanoic acid] the melting point was 119 to 122 °C.
For `COc1cccc([C@H]2O[C@H](CC(=O)Nc3cc4c(c(C(=O)O)c3)CCCC4)C(=O)N(CC(C)(C)CO)c3ccc(Cl)cc32)c1OC` [Example 112, 3-[[[(3R,5S)-7-Chloro-5-(2,3-dimethoxyphenyl)-1-(3-hydroxy-2,2-dimethylpropyl)-2-oxo-1,2,3,5-tetrahydro-4,1-benzoxazepin-3-yl]acetyl]amino]-5,6,7,8-tetrahydro-1-naphthoic acid], the melting point was 178 to 179 °C.
For `COc1cccc([C@@H]2O[C@@H](CC(=O)NCCc3occc3C(=O)O)C(=O)N(CC(C)(C)CO)c3ccc(Cl)cc32)c1OC` [Example 119, 2-[2-[[[(3S,5R)-7-Chloro-5-(2,3-dimethoxyphenyl)-1-(3-hydroxy-2,2-dimethylpropyl)-2-oxo-1,2,3,5-tetrahydro-4,1-benzoxazepin-3-yl]acetyl]amino]ethyl]furan-3-carboxylic acid], the melting point was 123 to 126 °C.
In the case of `COc1cccc([C@@H]2O[C@@H](CC(=O)Nc3cccc(CCC(=O)O)c3)C(=O)N(CC(C)(C)CO)c3ccc(Cl)cc32)c1OC` [Example 120, 3-[3-[[(3S,5R)-7-Chloro-5-(2,3-dimethoxyphenyl)-1-(3-hydroxy-2,2-dimethylpropyl)-2-oxo-1,2,3,5-tetrahydro-4,1-benzoxazepin-3-yl]acetyl]aminophenyl]propionic Acid], the melting point was 137 to 139 °C.
Compound `COc1cccc([C@@H]2O[C@@H](CC(=O)Nc3cc(CCC(=O)O)ccc3F)C(=O)N(CC(C)(C)CO)c3ccc(Cl)cc32)c1OC` [Example 121, 3-[3-[[[(3S,5R)-7-Chloro-5-(2,3-dimethoxyphenyl)-1-(3-hydroxy-2,2-dimethylpropyl)-2-oxo-1,2,3,5-tetrahydro-4,1-benzoxazepin-3-yl]acetyl]amino]-4-fluorophenyl]propionic Acid] has a melting point of 151 to 153 °C.
Compound `COc1cccc([C@H]2O[C@H](CC(=O)Nc3ccc(OCCCc4ccccc4)c(CCC(=O)O)c3)C(=O)N(CC(C)(C)CO)c3ccc(Cl)cc32)c1OC` [Example 124, 3-[5-[[[(3R,5S)-7-Chloro-5-(2,3-dimethoxyphenyl)-1-(3-hydroxy-2,2-dimethylpropyl)-2-oxo-1,2,3,5-tetrahydro-4,1-benzoxazepin-3-yl]acetyl]amino]-2-(3-phenylpropyloxy)phenyl]propionic Acid] has a melting point of 147 to 149 °C.
`COc1cccc([C@H]2O[C@H](CC(=O)Nc3cc(CCC(=O)O)ccc3OCCCc3ccccc3)C(=O)N(CC(C)(C)CO)c3ccc(Cl)cc32)c1OC` [Example 125, 3-[3-[[[(3R,5S)-7-Chloro-5-(2,3-dimethoxyphenyl)-1-(3-hydroxy-2,2-dimethylpropyl)-2-oxo-1,2,3,5-tetrahydro-4,1-benzoxazepin-3-yl]acetyl]amino]-4-(3-phenylpropyloxy)phenyl]propionic Acid] showed a melting point of 162 to 165 °C.
`COc1cccc([C@H]2O[C@H](CC(=O)Nc3cccc4c(C(=O)O)cccc34)C(=O)N(CC(C)(C)CO)c3ccc(Cl)cc32)c1OC` [Example 129, 5-[[2-[(3R,5S)-7-Chloro-5-(2,3-dimethoxyphenyl)-1-(3-hydroxy-2,2-dimethylpropyl)-2-oxo-1,2,3,5-tetrahydro-4,1-benzoxazepin-3-yl]acetyl]amino]-1-naphthoic acid] showed a melting point of 171 to 174 °C.
For `COc1cccc([C@H]2O[C@H](CC(=O)Nc3ccc(OC(F)(F)C(=O)O)cc3)C(=O)N(CC(C)(C)CO)c3ccc(Cl)cc32)c1OC` [Example 132, 2-[4-[[[(3R,5S)-7-Chloro-5-(2,3-dimethoxyphenyl)-1-(3-hydroxy-2,2-dimethylpropyl)-2-oxo-1,2,3,5-tetrahydro-4,1-benzoxazepin-3-yl]acetyl]amino]phenyloxy]-2,2-difluoroacetic acid], the melting point was 149 to 150 °C.
Work on `COc1cccc([C@H]2O[C@H](CC(=O)Nc3cccc(OC(F)(F)C(=O)O)c3)C(=O)N(CC(C)(C)CO)c3ccc(Cl)cc32)c1OC` [Example 133, 2-[3-[[[(3R,5S)-7-Chloro-5-(2,3-dimethoxyphenyl)-1-(3-hydroxy-2,2-dimethylpropyl)-2-oxo-1,2,3,5-tetrahydro-4,1-benzoxazepin-3-yl]acetyl]amino]phenyloxy]-2,2-difluoroacetic acid] yielded a melting point of 119 to 121 °C.
With `COc1cccc([C@H]2O[C@H](CC(=O)Nc3ccc(F)c(CCC(=O)O)c3)C(=O)N(CC(C)(C)CO)c3ccc(Cl)cc32)c1OC` [Example 134, 3-[5-[[[(3R,5S)-7-Chloro-5-(2,3-dimethoxyphenyl)-1-(3-hydroxy-2,2-dimethylpropyl)-2-oxo-1,2,3,5-tetrahydro-4,1-benzoxazepin-3-yl]acetyl]amino]-2-fluorophenyl]propionic Acid] the melting point was 123 to 125 °C.
